Reference: article PMC12540922, “Selective Antimicrobial and Cytotoxic Effects of Hop Compounds to Combat Poultry Antimicrobial Resistance” (MicrobiologyOpen, 2025)
Values after ≈ are worked out from the molar mass of the structure shown. “Also recorded” adds a separate entry of the source. Structures can show the parent of a compound that is named as a salt.

What was measured:
[1] = Solubility of hop compounds in aqueous media (HPLC of supernatant); format: physicochemical; conditions: 10% (v/v) ethanol; for Solubility in aqueous medium (in words): DMEM with/without 10% FBS, NB, TSB, theoretical 1 mg mL^−1; for solubility: culture media DMEM, NB and TSB, aqueous with cosolvent or surfactant or cyclodextrin, kinetic from dmso stock, in the media selected (DMEM, NB, TSB), read-out: Solubility limit
Description: High‐performance liquid chromatography (HPLC) measurements were performed using an NUCLEODUR C18 Gravity‐SB (3 µm, 250 × 2 mm) column equipped with a precolumn (Machery Nagel, Düren, Germany) in a Shimadzu HPLC system (Kyoto, Japan). The flow rate was set to 0.6 mL min^−1 at 40°C using 80% methanol/20% phosphoric acid (0.5% [v/v] in H2O) as mobile phase. Media samples were 10‐fold diluted in the mobile phase, incubated for 10 min at 40°C and centrifuged at 10,000g for 10 min. 10 μL of filtered (polytetrafluoroethylene, 0.2 µm) samples was injected for analysis. Identification and quantification of isoxanthohumol, xanthohumol, co‐/n‐/adhumulone, co‐/n‐/adlupulone, and co‐/n‐/adisohumulone by a UV‐Detector (314 nm for 0–24 min, and 270 nm for 24.01–45 min) were performed by corresponding standard curves. The preparation of hop compound solutions was carried out analogously for all three media NB, TSB, and DMEM for use in bacterial and avian cell culture. Hop compounds were provided by Hopsteiner (Mainburg, Germany) in the following purities: isoxanthohumol (81.0%), xanthohumol (90.0%), humulone (88.5%), lupulone (74.3%), and isohumulone (91.0%). The hop compounds were dissolved in ethanol to 10 mg mL^−1. From this stock solution, 1:10 dilutions were prepared in the respective medium, resulting in precipitation due to their hydrophobic character. After centrifugation (10,000g, 10 min), the clear supernatant was transferred to a new tube and used for further experiments. […] This is why the actual concentration of the compounds in the aqueous medium was analyzed using HPLC and used for subsequent calculations. Due to the hydrophobic character of hop pure compounds, a complete dissolution in an aqueous medium cannot be assumed. […] To assess the influence of FBS on solubility, DMEM without serum was also tested. For humulone, lupulone, and isohumulone, the three derivatives (co‐/n‐/ad‐) are considered together in this figure and also in the following.

[2] = system: MCF-7 breast cancer cell line; set-up: method as in Miranda et al. [1999]; conditions: ref Miranda et al. [1999], cited from earlier work
[3] = system: A-2780 ovarian cancer cell line; set-up: method as in Miranda et al. [1999]; conditions: ref Miranda et al. [1999], cited from earlier work
M. luteus = system: M. luteus; set-up: method as in Seniya et al. [2012]; conditions: against M. luteus; ref Seniya et al. [2012]; cited from earlier work
[4] = system: Micrococcus luteus (DSM 1605); assay: Broth dilution assay, antibacterial activity; format: cell-based; conditions: for MIC50: Micrococcus luteus, DSM1605, M. luteus, concentration inhibiting 50% of growth rate, NB medium, 37°C, 24 h, mean ± SD
Description: Micrococcus luteus (DSM 1605) was obtained from DSMZ (German Collection of Microorganisms and Cell Cultures GmbH). It was cultured on nutrient agar or in nutrient broth (NB, DSMZ #1) containing 5 g L^−1 peptone from casein (Carl Roth, Karlsruhe, Germany) and 3 g L^−1 meat extract (Carl Roth, Karlsruhe, Germany) under aerobic conditions at 37°C.
(§1) Antibacterial activity of hop compounds against Gram‐positive M. luteus and B. subtilis was analyzed using Broth Dilution Assay. Twofold dilutions of hop compounds were prepared in NB or TSB medium, ranging from theoretical concentrations of 500 to 0.5 µg mL^−1 and transferred to 48‐well microtiter plates (Sarstedt, Nuembrecht, Germany). Gentamicin sulfate was used as a positive control. The optical density (OD) of a preculture prepared on the previous day was measured at 600 nm in a spectrophotometer (Implen, Muenchen, Germany). The inoculum was then diluted with NB or TSB medium to the desired OD600 nm of 0.1 and transferred to all wells (150 µL) except the sterile control, which consists only of medium. The ODs of the cultures were measured every hour at 750 nm using a plate reader (Tecan, Maennedorf, Switzerland) for 24 h. In the meantime, the plates were incubated at 37°C or 28°C without shaking. The chosen wavelength of 750 nm resulted from previous experiments with hop extracts to avoid an overlap of the absorption spectrum with chlorophyll (Guidi et al. [2017]). The growth rates were obtained from the exponential range of the generated growth curves. All values were normalized to the growth control (without hop compounds). MIC50 (minimum concentration of a substance that inhibits the growth of 50% of the bacteria tested) values were calculated by nonlinear regression using GraphPad Prism model “log(inhibitor) versus response,” where the basal response was subtracted and the bottom was set to a constant value (0). Means and standard deviations (SDs) were calculated from two biological duplicates, each consisting of three technical replicates.

[5] = system: Bacillus subtilis (DSM 23778); assay: Broth dilution assay, antibacterial activity; format: cell-based; conditions: for Selectivity index (SI), quotient of IC50 and MIC50: IC50 UMNSAH/DF-1 / MIC50 B. subtilis; for MIC50: Bacillus subtilis, DSM23778, B. subtilis, concentration inhibiting 50% of growth rate, TSB medium, 28°C, 24 h, mean ± SD
Description: Bacillus subtilis (DSM 23778) was obtained from DSMZ (German Collection of Microorganisms and Cell Cultures GmbH). It was cultured on tryptic soy broth (TSB, DSMZ #545) agar plates or in TSB containing 17 g L^−1 peptone from casein, 3 g L^−1 peptone from soy, 2.5 g L^−1 D‐(+)‐glucose, 5 g L^−1 NaCl, and 2.5 g L^−1 K2HPO4 (Carl Roth, Karlsruhe, Germany) under aerobic conditions at 28°C.
as §1

[6] = system: normal murine hepatocytes (AML 12 cell line); set-up: method as in Ho et al. [2008]; conditions: ref Ho et al. [2008]; cited from earlier work
[7] = system: normal human fibroblasts (BJ cells); set-up: method as in Klimek et al. ([2021]); conditions: ref Klimek et al. ([2021]); cited from earlier work
[8] = MTT based cell viability assay (cytotoxic activity); conditions: chicken, UMNSAH/DF-1 chicken fibroblast cells, UMNSAH/DF-1, 48 h treatment, mean ± SD
Description: UMNSAH/DF‐1 cell line was purchased from Cytion (Eppelheim, Germany). The cells were maintained in Dulbecco's Modified Eagle Medium (DMEM, Sigma‐Aldrich, St. Louis, USA) containing 10% heat‐inactivated fetal bovine serum (FBS, Sigma‐Aldrich, St. Louis, USA) and cultured at 37°C and 5% CO2 in a humidified atmosphere. Cell lines were serially passaged after being detached with Accutase solution (Sigma‐Aldrich, St. Louis, USA).
The hop compounds were investigated for their cytotoxic effect on the chicken cell line UMNSAH/DF‐1, using the 3‐(4,5‐dimehtylthiazol‐2‐yl)‐2,5‐diphenyltetrazolium bromide (MTT) based cell viability assay. Cells were seeded in 96‐well microtiter plates (Sarstedt, Nümbrecht, Germany) with a cell density of 0.05 × 10^6 cells per mL and 100 µL per well and incubated for 24 h (37°C, 5% CO2). After that the medium was discarded and a dilution series of hop compounds in DMEM was added to the wells (100 µL), ranging from theoretical concentrations of 200 µg mL^−1 to 20 ng mL^−1. For vitality control, 20% dimethyl sulfoxide (DMSO) (TH Geyer, Renningen, Germany) was added, and for growth control, culture medium was added. The cytotoxic measurements were also performed with gentamicin sulfate as a control. Treated cells were further incubated for 48 h (37°C, 5% CO2). […] Means and SDs were calculated from two biological duplicates, each consisting of three technical replicates.

[9] = system: human prostate (PC3) and colon (HT29) cancer cell lines; set-up: method as in Farag and Wessjohann [2013]; conditions: ref Farag and Wessjohann [2013]; cited from earlier work
[10] = read-out: IC50 (antiproliferative effect)

COc1cc(O)c(CC=C(C)C)c2c1C(=O)CC(c1ccc(O)cc1)O2 (stereo not drawn) [isoxanthohumol]
Solubility in aqueous medium (in words) [1]: minimal; also recorded: moderately dissolved; also recorded: limited solubility | Effect compared with xanthohumol (in words) [2]: comparable effect | Times less effective than xanthohumol [3]: 35 times

CO/N=C(\C(=O)N[C@@H]1C(=O)N2C(C(=O)O)=C(CSc3nc(=O)c(=O)[nH]n3C)CS[C@H]12)c1csc(N)n1 [ceftriaxone]
MIC90 (M. luteus): 500 µg/mL (≈ 902 µM)

COc1cc(O)c(CC=C(C)C)c(O)c1C(=O)/C=C/c1ccc(O)cc1 [xanthohumol]
Selectivity index (SI), quotient of IC50 and MIC50 ([4]; IC50 UMNSAH/DF-1 / MIC50 M. luteus): 5.5 ± 0.36 | MIC50 [4]: 0.95 ± 0.04 µg/mL (≈ 2.68 µM) | Selectivity index (SI), quotient of IC50 and MIC50 [5]: around 6 | Solubility in aqueous medium (in words) [1]: minimal; also recorded: only a small proportion of xanthohumol could be recovered | Solubility in aqueous medium (in words) ([1]; listed as Xanthohumol): limited solubility | IC50 [2, 10]: 13.3 µM | IC50 [3, 10]: 0.52 µM | IC50 [6]: 211 µM | IC50 [7]: 26.56 µg/mL (≈ 74.9 µM)

[H]/N=C(/N)N[C@H]1[C@H](O)[C@@H](O)[C@H](O[C@@H]2O[C@@H](C)[C@](O)(C=O)[C@H]2O[C@@H]2O[C@@H](CO)[C@H](O)[C@@H](O)[C@@H]2NC)[C@@H](N/C(N)=N\[H])[C@@H]1O [streptomycin]
MIC90 (M. luteus): 500 µg/mL (≈ 860 µM)

CC1(C)S[C@@H]2[C@H](NC(=O)[C@H](N)c3ccccc3)C(=O)N2[C@H]1C(=O)O [ampicillin]
MIC90 (M. luteus): 2500 µg/mL (≈ 7150 µM)

CC(C)=CCC1=C(O)C(C(=O)CC(C)C)=C(O)C(CC=C(C)C)(CC=C(C)C)C1=O [lupulone]
MIC50 [4]: 1.5 ± 0.48 µg/mL (≈ 3.62 µM) | MIC50 [5]: 0.1 ± 0.0029 µg/mL (≈ 0.241 µM) | IC50 at 48 h [8]: 1.5 ± 0.034 µg/mL (≈ 3.62 µM) | solubility [1]: ~1000 µg/mL (≈ 2410 µM) | IC50 [9]: 2.4 to 8.1 µg/mL

CC(C)=CCC1C(=O)C(C(=O)CC(C)C)=C(O)C(O)(CC=C(C)C)C1=O (stereo not drawn) [humulone]
Selectivity index (SI), quotient of IC50 and MIC50 [5]: around 6 | Solubility in aqueous medium (in words) [1]: highest | solubility [1]: ~1000 µg/mL (≈ 2760 µM) | IC50 [9]: 13.2 to 15.5 µg/mL

CNC(C)C1CCC(N)C(OC2C(N)CC(N)C(OC3OCC(C)(O)C(NC)C3O)C2O)O1 (stereo not drawn) [gentamicin sulfate, reference compound]
MIC50 [4]: 0.26 ± 0.08 µg/mL | MIC50 [5]: 0.73 ± 0.2 µg/mL | IC50 at 48 h [8]: 1440 ± 390 µg/mL
